Reference: patent publication US20240058318A1, “DEGRADING PKCB1 TO TREAT CANCER” (Mayo Foundation for Medical Education and Research, priority 2020, published 2024)

Key:
[1] = system: Rb-proficient (MDAMB231) and Rb-deficient (BT549 and MDAMB436) TNBC cells; assay: CV proliferation assay, TNBC cells (statements across lines); format: cell-based; conditions: Rb-proficient and Rb-deficient TNBC cells, CV assay
Description: (§1) Cell proliferation rates were determined using crystal violet assays. One thousand cells per well were plated in 96 well tissue culture plates and treated the following day with a bifunctional compound or control for 7 days in replicates of 8. Cells were fixed with 25% glutaraldehyde for 10 minutes with shaking, washed 5 times with distilled water, stained with a 1% crystal violet solution (solubilized in 25% methanol) for 10 minutes, washed again 5 times and allowed to dry. De-staining was performed using […] sodium citrate in 50% ethanol followed by quantification using a 96 well spectrophotometer set at an absorbance of 550 nm.
as §1, with “using CV” for “using crystal violet”, “assays. Two” for “assays. One”, “thousand (2000) or 4000” for “thousand”, “for 6” for “for 7”, “of 6.” for “of 8.”

[2] = system: MDAH-2774 and KURAMOCHI ovarian cancer cells; assay: CV proliferation assay, ovarian cancer cells (statements across lines); format: cell-based; conditions: MDAH-2774 and KURAMOCHI cells
Description: as §1
Based on the potent anti-proliferative activity of ENDX-PROTACs TC-Pr-006, TC-Pr-007, TC-Pr -008, and TC-Pr -009 in TNBC cells, the efficacy of these compounds for inhibiting the growth of ovarian cancer cells was tested. This analysis utilized KURAMOCHI cells, which represent the high-grade serous subtype (the most malignant form that accounts for 70% of all ovarian cancers and associates with poor clinical outcome) and MDAH-2774 cells, which represent endometrioid ovarian cancer and accounts for 20% of all ovarian cancer. PKCβ1 was confirmed to be expressed in both ovarian cancer cell line models, with MDAH-2774 cells expressing higher amounts of PKCβ1 compared to KURAMOCHI cells (FIG. 5A).

Compound: CC/C(=C(\c1ccc(O)cc1)c1ccc(OCCNC)cc1)c1ccccc1 [ENDX, endoxifen, reference compound]
- concentration inhibiting growth of TNBC cells [1]: > 5 µM
- concentration inhibiting growth of ovarian cancer cells [2]: 10 µM
